Read-outs that look alike come from different tables or passages of the source.
Tests used:
Format in all cases: in vivo
corn (Zea mays L.) = test: Test Example 5, foliar treatment versus Reference Compounds; conditions: 4.0 to 4.3 leaf stage, 7th day after application, read-out: Growth inhibition rate (%) (7th day after application) Corn
Description: (§1) Upland field soil was put into a 1/1,000,000 hectare pot, and seeds of various plants were sown. When the respective plants reached predetermined leaf stage ((1) velvetleaf (Abutilon theophrasti MEDIC.): 3.0 to 3.5 leaf stage, (2) giant foxtail (Setaria faberi Herrm.): 4.0 to 4.5 leaf stage, (3) green foxtail (Setaria viridis L.): 5.0 to 5.5 leaf stage, and (4) corn (Zea mays L.): 4.0 to 4.3 leaf stage, a wettable powder of compound No. 2-1 of the above-mentioned present invention, a wettable powder of the above-mentioned Reference Compound 1 and a wettable powder of the above-mentioned Reference Compound 2, prepared in accordance with a conventional preparation method, were weighed so that the active ingredients became the prescribed amounts, and diluted with water in an amount corresponding to 300 liter per 1 hectare (containing 0.5 vol % of an agricultural spreader (Destiny HC: WINFIELD SOLUTIONS by LLC). The spray solutions thus prepared were applied for foliar treatment by a small sprayer.
(§2) On the 7th to 20th day after application, the state of growth of the respective plants was visually observed, and the herbicidal effect was evaluated by a growth inhibition rate (%) of 0 (equivalent to the non-treated area) to 100% (complete kill).

[1] = system: giant foxtail (Setaria faberi Herrm.); test: as above; conditions: 4.0 to 4.5 leaf stage, 20th day after application, read-out: Growth inhibition rate (%) (20th day after application) Giant foxtail
Description: as §1, §2

[2] = system: green foxtail (Setaria viridis L.); test: as above; conditions: 5.0 to 5.5 leaf stage, 18th day after application, read-out: Growth inhibition rate (%) (18th day after application) Green foxtail
Description: as §1, §2

[3] = system: velvetleaf (Abutilon theophrasti MEDIC.); test: as above; conditions: 3.0 to 3.5 leaf stage, 20th day after application, read-out: Growth inhibition rate (%) (20th day after application) Velvet leaf
Description: as §1, §2

[4] = system: sorgo (Sorghum bicolor Moench) (var.: Lucky Sorgo); test: Test Example 6, soil column downward movement, sorgo bioassay; conditions: 14th day after sowing
Description: Soil (sterilized soil:sand=3:1) was packed (4 L) into a column (9.5 cm in diameter×40 cm in height, application area: 0.007 m^2), and tap water was dropped from above by a Peristaltic pump before application of the herbicide for the purpose of maintaining the soil moisture to be uniform. Then, 10 mL of a spray solution prepared so that each agent (Compound No. 2-1, the above Reference Compounds 1 and 2) would be at a concentration corresponding to 250 g/ha was dropwise applied by a pipette. After application, water was dropped again at a rate of 400 mL/hr for about 3 hours by means of a Peristaltic pump. After the dropping, the column was left to stand for 1 day, and then the column was vertically evenly divided and seeds of sorgo (Sorghum bicolor Moench) (var.: Lucky Sorgo) were sown in a row. On the 14th day after sowing, the state of growth of the plant was visually observed at 3 cm intervals from the application point of the agent, whereby the germination and the degree of growth were evaluated by a growth inhibition rate (%) of 0 (equivalent to the non-treated area) to 100% (complete kill) to obtain the results in Table 17.
From the above results, the growth inhibition rates of Reference Compounds No. 1 and No. 2 are observed in depths deeper than that of Compound No. 2-1. […] Whereas, Compound No. 2-1 stayed at a shallow portion of soil (in a layer of from 0 to 9 cm).

Compound `COCCOc1c(S(C)(=O)=O)ccc(C(=O)c2cnn(C(C)C)c2O)c1Cl` [Reference Compound 2] has an inhibition at 90 g/ha (corn (Zea mays L.)) of 25%, an inhibition at 3.5 g/ha [1] of 0% and an inhibition at 7 g/ha [2] of 35%. It also gave an inhibition at 3.5 g/ha [3] of 50%, an inhibition at 250 g/ha ([4]; depth 0-3 cm, read-out: Growth inhibition rate (%) against sorgo, Depth (cm) from the applied surface 0-3) of 48% and an inhibition at 250 g/ha ([4]; depth 3-6 cm, read-out: Growth inhibition rate (%) against sorgo, Depth (cm) from the applied surface 3-6) of 45%. The inhibition at 250 g/ha ([4]; depth 6-9 cm, read-out: Growth inhibition rate (%) against sorgo, Depth (cm) from the applied surface 6-9) was 47%, the inhibition at 250 g/ha ([4]; depth 9-12 cm, read-out: Growth inhibition rate (%) against sorgo, Depth (cm) from the applied surface 9-12) was 43% and the inhibition at 250 g/ha ([4]; depth 12-15 cm, read-out: Growth inhibition rate (%) against sorgo, Depth (cm) from the applied surface 12-15) was 58%. The inhibition at 250 g/ha ([4]; depth 15-18 cm, read-out: Growth inhibition rate (%) against sorgo, Depth (cm) from the applied surface 15-18) was 55%, the inhibition at 250 g/ha ([4]; depth 18-21 cm, read-out: Growth inhibition rate (%) against sorgo, Depth (cm) from the applied surface 18-21) was 61% and the inhibition at 250 g/ha ([4]; depth 21-24 cm, read-out: Growth inhibition rate (%) against sorgo, Depth (cm) from the applied surface 21-24) was 63%. The inhibition at 250 g/ha ([4]; depth 24-27 cm, read-out: Growth inhibition rate (%) against sorgo, Depth (cm) from the applied surface 24-27) was 35% and the inhibition at 250 g/ha ([4]; depth 27-30 cm, read-out: Growth inhibition rate (%) against sorgo, Depth (cm) from the applied surface 27-30) was 8%.
